This is an account of results in US20260053861A1, “CELL COMPOSITIONS AND METHODS OF USING THE SAME” (THE REGENTS OF THE UNIVERSITY OF CALIFORNIA, priority 2022, published 2026).

SMILES strings stand for the structures. Structures can show the parent of a compound that is named as a salt.

The subject of the first test is hPSC-SCs.
Details: not given
On to `COc1ccc2[nH]c3c(c2c1)CCN=C3C` [Methoxy-6-harmalan], for which the z.score.t is reported as −0.1216.

Compound `Cc1cc(C(C)(C)CC(C)(C)C)ccc1OCCOCC[N+](C)(C)Cc1ccccc1.[Cl-]` [Methyl benzethonium chloride] registered a z.score.t of −1.169.

`CC[C@@H](CO)NC(=O)[C@@H]1C=C2c3cccc4[nH]cc(c34)C[C@H]2N(C)C1` [Methylergometrine maleate]: the z.score.t was 1.669.

`C[C@H]1NC(=O)NC1=O` [Methylhydantoin-5-(D)]: the z.score.t is listed as −0.9395.

`C[C@@H]1NC(=O)NC1=O` [Methylhydantoin-5-(L)] yielded a z.score.t of 1.101.

In the case of `C[C@H]1C(=O)O[C@@H]2CCN3CC=C(COC(=O)[C@](C)(O)[C@]1(C)O)[C@H]23` [Monocrotaline], the z.score.t came to 0.5046.

In turn, `Cc1ccsc1/C=C/C1=NCCCN1C` [Morantel tartrate] displayed a z.score.t of −0.06439.

Compound `c1cncc(C2=NCCC2)c1` [Myosmine] yielded a z.score.t of 0.9865.

For the compound `Oc1ccc2c3c1O[C@H]1[C@@H](O)CC[C@@]4(O)[C@@H](C2)N(CC2CCC2)CC[C@]314` [Nalbuphine hydrochloride], the z.score.t was 0.1298.

As to `C[C@]12CC[C@H]3[C@@H](CCC4=CC(=O)CC[C@@H]43)[C@@H]1CC[C@@H]2O` [Nandrolone], the z.score.t amounted to 1.306.

Compound `C=C1[C@H]2C[C@@]3([C@@H]1O)[C@@H](C[C@@H]2O)[C@]12[C@@H]4C[C@H]3[C@H]1N(CC)C[C@]4(C)CC[C@@H]2O` [Napelline] registered a z.score.t of 1.178.

The same test, now with this note: HTS viability of hPSC-SCs in the presence of 30 mM glucose; Prestwick library; Table S4.
Take `CS(=N)(=O)CC[C@H](N)C(=O)O` (stereo partly shown) [Methionine sulfoximine (L)]: the z.score.t was determined as 1.124.

Turning to `CSc1ccc2c(c1)C(N1CCN(C)CC1)Cc1ccccc1S2.O=C(O)/C=C\C(=O)O` (stereo not shown) [Methiothepin maleate], the z.score.t was −0.8821.

With `COc1ccccc1OCC(O)COC(N)=O` (stereo not shown) [Methocarbamol], the z.score.t is listed as −1.392.

On to `CN(Cc1cnc2nc(N)nc(N)c2n1)c1ccc(C(=O)N[C@@H](CCC(=O)O)C(=O)O)cc1` [Methotrexate], for which the z.score.t is recorded as 0.8875.

As for `COc1ccc2c(c1)N(C[C@H](C)CN(C)C)c1ccccc1S2.O=C(O)/C=C\C(=O)O` [Methotrimeprazine maleat salt], the z.score.t was −1.008.

With `COc1ccc(OC)c(C(O)C(C)N)c1` (stereo not shown) [Methoxamine hydrochloride], the z.score.t is given as 1.064.

With `COc1c2occc2cc2ccc(=O)oc12` [Methoxy-8-psoralen], the z.score.t was found to be 1.124.

As to `C[N+]1(C)[C@@H]2CC[C@H]1C[C@@H](OC(=O)C(CO)c1ccccc1)C2` (stereo partly shown) [Methylatropine nitrate], the z.score.t stood at 1.238.

In the case of `C[C@](N)(Cc1ccc(O)c(O)c1)C(=O)O` [Methyldopa (L, −)], the z.score.t was determined as 0.006455.

Take `CCOC(=O)[C@@](C)(N)Cc1ccc(O)c(O)c1` [Methyldopate hydrochloride]: the z.score.t is reported as −0.8464.

On to `C[C@H]1C[C@@H]2[C@H]([C@@H](O)C[C@@]3(C)[C@H]2CC[C@]3(O)C(=O)CO)[C@@]2(C)C=CC(=O)C=C12` [Methylprednisolone, 6-alpha], for which the z.score.t was determined as 0.7665.

In the case of `Cc1cc2c(cc1S(N)(=O)=O)S(=O)(=O)CCC2` [Meticrane], the z.score.t was −0.3156.

`CN1CCCC(CC2c3ccccc3Sc3ccccc32)C1` (stereo not shown) [Metixene hydrochloride]: the z.score.t is −0.9654.

Take `CCN(CC)CCNC(=O)c1cc(Cl)c(N)cc1OC` [Metoclopramide monohydrochloride]: the z.score.t is given as 1.024.

Regarding `Cc1ccccc1N1C(=O)c2cc(S(N)(=O)=O)c(Cl)cc2NC1C` (stereo not shown) [Metolazone], the z.score.t came to 0.3637.

As for `CC(=O)Nc1c(I)c(C(=O)N[C@H]2C(O)O[C@H](CO)[C@@H](O)[C@@H]2O)c(I)c(N(C)C(C)=O)c1I` (stereo partly shown) [Metrizamide], the z.score.t turned out to be 1.421.

As for `Cc1ncc([N+](=O)[O-])n1CCO` [Metronidazole], the z.score.t is reported as 1.259.

With `CC(C)(C(=O)c1cccnc1)c1cccnc1` [Metyrapone], the z.score.t stood at 1.178.

`C[C@@]1(O)CCOC(=O)C1` [Mevalonic-D, L acid lactone]: the z.score.t came to 0.2361.

As for `Cc1cccc(C)c1OCC(C)N` (stereo not shown) [Mexiletine hydrochloride], the z.score.t was determined as 0.6648.

Take `CN1CCN2c3ccccc3Cc3ccccc3C2C1` (stereo not shown) [Mianserine hydrochloride]: the z.score.t is 0.8279.

Turning to `Clc1ccc(COC(Cn2ccnc2)c2ccc(Cl)cc2Cl)c(Cl)c1` (stereo not shown) [Miconazole], the z.score.t is recorded as −1.873.

Turning to `COc1ccc(OC)c(C(O)CNC(=O)CN)c1` (stereo not shown) [Midodrine hydrochloride], the z.score.t turned out to be 0.5856.

Regarding `CC#C[C@]1(O)CC[C@H]2[C@@H]3CCC4=CC(=O)CCC4=C3[C@@H](c3ccc(N(C)C)cc3)C[C@@]21C` [Mifepristone], the z.score.t is reported as −0.8392.

Take `Cc1[nH]c(=O)c(C#N)cc1-c1ccncc1` [Milrinone]: the z.score.t is on record as 0.3236.

With `NC(Cn1ccc(=O)c(O)c1)C(=O)O` (stereo not shown) [Mimosine], the z.score.t came out at 0.7491.

On to `Cc1cc(-c2ccccc2)nnc1NCCN1CCOCC1` [Minaprine dihydrochloride], for which the z.score.t is reported as −0.5003.

In the case of `CN(C)c1ccc(O)c2c1C[C@H]1C[C@H]3[C@H](N(C)C)C(O)=C(C(N)=O)C(=O)[C@@]3(O)C(O)=C1C2=O` [Minocycline hydrochloride], the z.score.t is reported as −1.319.

On to `Nc1cc(N2CCCCC2)nc(N)[n+]1[O-]` [Minoxidil], for which the z.score.t came out at 0.2479.

Regarding `O=C1c2c(O)ccc(O)c2C(=O)c2c(NCCNCCO)ccc(NCCNCCO)c21` [Mitoxantrone dihydrochloride], the z.score.t is given as −0.3936.

Turning to `O=C(NCCN1CCOCC1)c1ccc(Cl)cc1` [Moclobemide], the z.score.t is given as 0.5822.

Take `CCc1c(C)[nH]c2c1C(=O)C(CN1CCOCC1)CC2` (stereo not shown) [Molindone hydrochloride]: the z.score.t is listed as −0.1759.

For `CCOC(=O)[N-]c1cn(N2CCOCC2)n[o+]1` [Molsidomine], the z.score.t was 0.713.

As to `C[C@@H]1C[C@H]2[C@@H]3CCC4=CC(=O)C=C[C@]4(C)[C@@]3(Cl)[C@@H](O)C[C@]2(C)[C@@]1(OC(=O)c1ccco1)C(=O)CCl` [Mometasone furoate], the z.score.t was found to be 0.1979.

Consider `CC[C@@]1([C@@H]2O[C@@H]([C@H]3O[C@@](O)(CO)[C@H](C)C[C@@H]3C)C[C@@H]2C)CC[C@H]([C@]2(C)CC[C@]3(C[C@H](O)[C@@H](C)[C@@H]([C@@H](C)[C@@H](OC)[C@H](C)C(=O)O)O3)O2)O1` [Monensin sodium salt], for which the z.score.t is on record as −2.299.

For `Oc1ccc(OCc2ccccc2)cc1` [Monobenzone], the z.score.t worked out at 0.557.

Turning to `CCOC(=O)Nc1ccc2c(c1)N(C(=O)CCN1CCOCC1)c1ccccc1S2` [Moricizine hydrochloride], the z.score.t turned out to be 0.0827.

`Cl.N=C(N=C(N)N)N1CCOCC1` [Moroxidine hydrochloride]: the z.score.t came out at 1.464.

For the compound `CO[C@@]1(NC(=O)C(C(=O)O)c2ccc(O)cc2)C(=O)N2C(C(=O)O)=C(CSc3nnnn3C)CO[C@@H]21` (stereo partly shown) [Moxalactam disodium salt], the z.score.t was found to be 0.4105.

Consider `CC(=O)Oc1cc(C(C)C)c(OCCN(C)C)cc1C.Cl` [Moxisylyte hydrochoride], for which the z.score.t was 0.8757.

For the compound `COc1nc(C)nc(Cl)c1N=C1NCCN1` [Moxonidine], the z.score.t is recorded as −0.133.

Regarding `COc1c(C)c2c(c(O)c1C/C=C(\C)CCC(=O)O)C(=O)OC2` [Mycophenolic acid], the z.score.t is on record as −0.7775.

Turning to `O=c1c(O)c(-c2cc(O)c(O)c(O)c2)oc2cc(O)cc(O)c12` [Myricetin], the z.score.t is recorded as 0.713.

For the compound `CNc1ncnc2c1ncn2[C@@H]1O[C@H](CO)[C@@H](O)[C@H]1O` [N6-methyladenosine], the z.score.t was 1.002.

Regarding `CC(=O)N[C@@H](CC(C)C)C(=O)O` [N-Acetyl-L-leucine], the z.score.t was determined as 0.2361.

Take `COc1ccc2cc(CCC(C)=O)ccc2c1` [Nabumetone]: the z.score.t is 0.5365.

For the compound `NC(=O)c1ccc[n+]([C@@H]2O[C@H](COP(=O)([O-])OP(=O)(O)OC[C@H]3O[C@@H](n4cnc5c(N)ncnc54)[C@H](O)[C@@H]3O)[C@@H](O)[C@H]2O)c1` [Nadide], the z.score.t worked out at 0.453.

Take `CC1CCc2c(N3CCC(O)CC3)c(F)cc3c(=O)c(C(=O)O)cn1c23` (stereo not shown) [Nadifloxacin]: the z.score.t is −0.9598.

On to `CC(C)(C)NCC(O)COc1cccc2c1CC(O)C(O)C2` (stereo not shown) [Nadolol], for which the z.score.t stood at 0.7349.

In the case of `CCOc1ccc2ccccc2c1C(=O)N[C@@H]1C(=O)N2[C@@H]1SC(C)(C)[C@@H]2C(=O)O` [Nafcillin sodium salt monohydrate], the z.score.t turned out to be 1.323.

For the compound `CCN(CC)CCOC(=O)C(Cc1cccc2ccccc12)CC1CCCO1` (stereo not shown) [Nafronyl oxalate], the z.score.t worked out at 2.094.

In the case of `CN(C/C=C/c1ccccc1)Cc1cccc2ccccc12` [Naftifine hydrochloride], the z.score.t is recorded as −1.168.

Regarding `COc1ccccc1N1CCN(CC(O)COc2cccc3ccccc23)CC1` (stereo not shown) [Naftopidil dihydrochloride], the z.score.t was −0.9264.

Take `C=CCN1CC[C@]23c4c5ccc(O)c4O[C@H]2C(=O)CC[C@@]3(O)[C@H]1C5` [Naloxone hydrochloride]: the z.score.t worked out at 0.84.

For the compound `O=C1CC[C@@]2(O)[C@H]3Cc4ccc(O)c5c4[C@@]2(CCN3CC2CC2)[C@H]1O5` [Naltrexone hydrochloride dihydrate], the z.score.t is on record as 0.754.

As for `c1ccc2c(CC3=NCCN3)cccc2c1` [Naphazoline hydrochloride], the z.score.t is 0.7665.

`COc1ccc2cc([C@H](C)C(=O)O)ccc2c1` [Naproxen]: the z.score.t is recorded as 1.745.

Take `O=C1C[C@@H](c2ccc(O)cc2)Oc2cc(O)cc(O)c21` [Naringenine]: the z.score.t amounted to 1.539.

As to `C[C@@H]1O[C@@H](O[C@H]2[C@H](Oc3cc(O)c4c(c3)O[C@H](c3ccc(O)cc3)CC4=O)O[C@H](CO)[C@@H](O)[C@@H]2O)[C@H](O)[C@H](O)[C@H]1O` [Naringin hydrate], the z.score.t was 1.659.
